Measured values published in patent publication US9113629B2, “4-amino-6-(4-substituted-phenyl)-picolinates and 6-amino-2-(4-substituted-phenyl)-pyrimidine-4-carboxylates and their use as herbicides” (DOW AGROSCIENCES LLC, priority 2013, dated 2015).
Like-named read-outs stand apart in the source and are kept apart here.

Columns and labels:
[1] = test system: Key Broadleaf Weed and Crop Species; assay: Post-emergent Test II herbicidal activity (Table 5); type: in vivo; conditions: post-emergence, 336 h, 14 days after application; for pest or weed control at 70 g/ha: application rate 70 g ai/ha; for pest or weed control at 140 g/ha: application rate 140 g ai/ha
Method in brief: (§1)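 Greenhouse-grown plants at first or second true leaf stage were sprayed post-emergence with compound in acetone/DMSO-based aqueous spray containing crop oil concentrate and surfactant, at 187 L/ha, highest rate plus ½× to 1/16× dilutions. After 14 d, injury was scored visually versus untreated plants, 0 (none) to 100% (complete kill).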

[2] = test system: Key Grass and Sedge Weeds as well as Grass Crops; assay: Post-emergent Test II herbicidal activity (Table 6); type: in vivo; conditions: post-emergence, 336 h; for pest or weed control at 70 g/ha: 70 g ai/ha; for pest or weed control at 140 g/ha: 140 g ai/ha
Method in brief: as §1

[3] = ABUTH: velvetleaf (Abutilon theophrasti), read-out: Visual Growth Reduction (%) 14 Days After Application, ABUTH
[4] = AMARE: redroot pigweed (Amaranthus retroflexus), read-out: Visual Growth Reduction (%) 14 Days After Application, AMARE
[5] = BRSNN: oilseed-rape, canola (Brassica napus), read-out: Visual Growth Reduction (%) 14 Days After Application, BRSNN
[6] = CHEAL: lambsquarters (Chenopodium album), read-out: Visual Growth Reduction (%) 14 Days After Application, CHEAL
[7] = EPHHL: wild poinsettia (Euphorbia heterophylla), read-out: Visual Growth Reduction (%) 14 Days After Application, EPHHL
[8] = HELAN: sunflower (Helianthus annuus), read-out: Visual Growth Reduction (%) 14 Days After Application, HELAN
[9] = VIOTR: wild pansy (Viola tricolor), read-out: Visual Growth Reduction (%) 14 Days After Application, VIOTR
[10] = CYPES: yellow nutsedge (Cyperus esculentus), read-out: Visual Growth Reduction (%) 14 Days After Application, CYPES
[11] = DIGSA: crabgrass (Digitaria sanguinalis), read-out: Visual Growth Reduction (%) 14 Days After Application, DIGSA
[12] = ECHCG: barnyardgrass (Echinochloa crus-galli), read-out: Visual Growth Reduction (%) 14 Days After Application, ECHCG
[13] = ORYSA: rice (Oryza sativa), crop, read-out: Visual Growth Reduction (%) 14 Days After Application, ORYSA
[14] = SETFA: giant foxtail (Setaria faberi), read-out: Visual Growth Reduction (%) 14 Days After Application, SETFA
[15] = SORVU: grain sorghum (Sorghum vulgare), read-out: Visual Growth Reduction (%) 14 Days After Application, SORVU
[16] = TRZSS (wheat, Triticum aestivum), crop, read-out: Visual Growth Reduction (%) 14 Days After Application, TRZSS
[17] = ZEAMX: maize, corn (Zea mays), crop, read-out: Visual Growth Reduction (%) 14 Days After Application, ZEAMX

SMILES | melting point | pest or weed control at 70 g/ha [1, 3] [%] | pest or weed control at 140 g/ha [1, 3] [%] | pest or weed control at 70 g/ha [1, 4] [%] | pest or weed control at 140 g/ha [1, 4] [%] | pest or weed control at 70 g/ha [1, 5] [%] | pest or weed control at 140 g/ha [1, 5] [%] | pest or weed control at 70 g/ha [1, 6] [%] | pest or weed control at 140 g/ha [1, 6] [%] | pest or weed control at 70 g/ha [1, 7] [%] | pest or weed control at 140 g/ha [1, 7] [%] | pest or weed control at 70 g/ha [1, 8] [%] | pest or weed control at 140 g/ha [1, 8] [%] | pest or weed control at 70 g/ha [1, 9] [%] | pest or weed control at 140 g/ha [1, 9] [%] | pest or weed control at 70 g/ha [2, 10] [%] | pest or weed control at 140 g/ha [2, 10] [%] | pest or weed control at 70 g/ha [2, 11] [%] | pest or weed control at 140 g/ha [2, 11] [%] | pest or weed control at 70 g/ha [2, 12] [%] | also measured
C#Cc1ccc(-c2nc(N)c(OC)c(C(=O)O)n2)c(F)c1 [Compound 41] | 155 to 165 °C (dec.) | 0 to 29 | 0 to 29 | 0 to 29 | 0 to 29 | 0 to 29 | 45 to 59 | 0 to 29 | 60 to 74 | 0 to 29 | 0 to 29 | 60 to 74 | 75 to 84 | 0 to 29 | 0 to 29 | 0 to 29 | 0 to 29 | 0 to 29 | 0 to 29 | 0 to 29 | pest or weed control at 140 g/ha [2, 12]: 0 to 29%; pest or weed control at 70 g/ha [2, 13]: 0 to 29%; pest or weed control at 140 g/ha [2, 13]: 0 to 29%; pest or weed control at 70 g/ha [2, 14]: 0 to 29%; pest or weed control at 140 g/ha [2, 14]: 0 to 29%; pest or weed control at 70 g/ha [2, 15]: 0 to 29%; pest or weed control at 140 g/ha [2, 15]: 0 to 29%; pest or weed control at 70 g/ha [2, 16]: 0 to 29%; pest or weed control at 140 g/ha [2, 16]: 0 to 29%; pest or weed control at 70 g/ha [2, 17]: 0 to 29%; pest or weed control at 140 g/ha [2, 17]: 0 to 29%
C#Cc1ccc(-c2nc(C(=O)OC)c(Cl)c(N)c2F)cc1F [Compound 133, methyl 4-amino-3-chloro-6-(4-ethynyl-3-fluorophenyl)-5-fluoropicolinate] | 141 to 143 °C | 85 to 94 | 95 to 100 | 75 to 84 | 75 to 84 | 75 to 84 | 95 to 100 | 95 to 100 | 95 to 100 | 85 to 94 | 95 to 100 | 95 to 100 | 95 to 100 | 0 to 29 | 30 to 44 | 30 to 44 | 45 to 59 | 0 to 29 | 60 to 74 | 0 to 29 | pest or weed control at 140 g/ha [2, 12]: 60 to 74%; pest or weed control at 70 g/ha [2, 13]: 0 to 29%; pest or weed control at 140 g/ha [2, 13]: 0 to 29%; pest or weed control at 70 g/ha [2, 14]: 45 to 59%; pest or weed control at 140 g/ha [2, 14]: 75 to 84%; pest or weed control at 70 g/ha [2, 15]: 60 to 74%; pest or weed control at 140 g/ha [2, 15]: 75 to 84%; pest or weed control at 70 g/ha [2, 16]: 30 to 44%; pest or weed control at 140 g/ha [2, 16]: 30 to 44%; pest or weed control at 70 g/ha [2, 17]: 95 to 100%; pest or weed control at 140 g/ha [2, 17]: 95 to 100%
COC(=O)c1nc(-c2ccc(C#N)c(F)c2F)c(F)c(N)c1Cl [Compound 160] | 163 to 164 °C | 30 to 44 | 45 to 59 | 85 to 94 | 95 to 100 | 0 to 29 | 0 to 29 | 60 to 74 | 75 to 84 | 45 to 59 | 60 to 74 | 85 to 94 | 95 to 100 | 0 to 29 | 0 to 29 | 0 to 29 | 0 to 29 | 0 to 29 | 0 to 29 | 0 to 29 | pest or weed control at 140 g/ha [2, 12]: 0 to 29%; pest or weed control at 70 g/ha [2, 13]: 0 to 29%; pest or weed control at 140 g/ha [2, 13]: 0 to 29%; pest or weed control at 70 g/ha [2, 14]: 0 to 29%; pest or weed control at 140 g/ha [2, 14]: 0 to 29%; pest or weed control at 70 g/ha [2, 15]: 0 to 29%; pest or weed control at 140 g/ha [2, 15]: 0 to 29%; pest or weed control at 70 g/ha [2, 16]: 0 to 29%; pest or weed control at 140 g/ha [2, 16]: 0 to 29%; pest or weed control at 70 g/ha [2, 17]: 0 to 29%; pest or weed control at 140 g/ha [2, 17]: 0 to 29%
